Test results reported in patent US20260048046A1, “METHOD FOR IMPROVING GROWTH PERFORMANCE IN FEEDLOT CATTLE” (Elanco US Inc., priority 2022, published 2026).

Test system: beef steers
Assay: Lubabegron removal period study: carcass measures
Format: in vivo, cattle
Settings: for Calculated YG / Ribeye Area / HCW / Marbling / Dressing: Lubabegron 3.5 mg/kg DM fed 56 d; for HCW: steers; for Marbling: 500 = Small; for Dressing: final liveweight with 4% shrink
Procedure: This experiment was conducted to evaluate the effect of removing lubabegron from feed for increasing intervals prior to slaughter on growth performance of steers.
Seven hundred English x Continental cross steers (initial BW=531±8.8 kg) were used in a randomized complete block design with seven treatments. Pen served as the experimental unit. […] Animals were managed as two-time replications with each replication containing five blocks (7 pens/block and 10 steers/pen). All ten blocks started and ended within 48 hours of each other. Cattle were weighed by pen using a 45,000-kg capacity pen scale (Model WI-130, Avery Weigh-Tronix LLC, Fairmont, MN; 3.66 m×21.34 m). All treatments were on feed for 71 d with harvest scheduled for 72 d. Because of an impending weather event, cattle were weighed to obtain a final BW one d early. Cattle were placed on their respective ration for the additional d and then shipped to the harvest facility the following morning.
657 head were transported to a harvest facility approximately 495 km from the research facility. Animals were scored for animal mobility using the North American Meat Institute (NAMI, 2015) scoring scale described by Edwards-Callaway et al., (2017) while in lairage. […] Experienced staff collected an ear tag number, plant identification (ID), and carcass sequence and applied a unique carcass ID. Data collected on the kill floor included HCW, instances of excessive trim (>approximately 9 kg), and prevalence of liver abscess (Brown et al., 1975). Other carcass measures were obtained via instrument grading.
Continuous variables were analyzed using the Mixed procedure of SAS (version 9.4; SAS Institute, Cary, NC). Block served as a random effect whereas treatment was fixed. Initial body weight was used to describe the uniformity of cattle randomized to treatment and used as a covariate when appropriate. Data were calculated with deads and removals excluded. Linear and quadratic effects of lubabegron removal were conducted as were individual comparisons for duration of removal (i.e., 0 vs 2 d; 0 vs 4 d, 0 vs 6 d; 0 vs 8 d and 0 vs 16 d). Fisher's Exact test was evaluated on mobility scores 1 and 2. No test was conducted on mobility scores of 3 or 4 because no scores were reported. Simple means and standard deviation of the tissues collected for the 5 animals were calculated.

Structure (SMILES): CC(C)(Cc1ccc(Oc2ncccc2C#N)cc1)NC[C@H](O)COc1ccccc1-c1cccs1 [LUB, 2-{4-[2-({(2S)-2-Hydroxy-3-[2-(2-thienyl)phenoxy]propyl}amino)-2-methylpropyl]phenoxy}nicotinonitrile]
- Calculated YG (removal duration 0 d): 3.08
- Ribeye Area (removal duration 0 d): 91.0 cm^2
- HCW (removal duration 0 d): 409 kg
- Marbling (removal duration 0 d): 482
- Dressing (removal duration 0 d): 62.7%
- Calculated YG (removal duration 2 d): 3.20
- Ribeye Area (removal duration 2 d): 90.3 cm^2
- HCW (removal duration 2 d): 411 kg
- Marbling (removal duration 2 d): 491
- Dressing (removal duration 2 d): 62.7%
- Calculated YG (removal duration 4 d): 3.21
- Ribeye Area (removal duration 4 d): 90.3 cm^2
- HCW (removal duration 4 d): 413 kg
- Marbling (removal duration 4 d): 488
- Dressing (removal duration 4 d): 62.8%
- Calculated YG (removal duration 6 d): 3.06
- Ribeye Area (removal duration 6 d): 91.6 cm^2
- HCW (removal duration 6 d): 410 kg
- Marbling (removal duration 6 d): 483
- Dressing (removal duration 6 d): 62.9%
- Calculated YG (removal duration 8 d): 3.14
- Ribeye Area (removal duration 8 d): 90.3 cm^2
- HCW (removal duration 8 d): 413 kg
- Marbling (removal duration 8 d): 483
- Dressing (removal duration 8 d): 63.0%
- Calculated YG (removal duration 16 d): 3.18
- Ribeye Area (removal duration 16 d): 89.0 cm^2
- Marbling (removal duration 16 d): 484
- Dressing (removal duration 16 d): 62.6%
- Effect of removal duration on any measured carcass parameter (lubabegron 3.5 mg/kg DM, removal 0 to 16 d, P>0.05): no effect
- Calculated yield grade improvement vs non-treated group (lubabegron fed for 56 d with a 0 d removal): 10.5%
- Effects on BW and HCW of duration of lubabegron removal (removal up to 16 d): not affected
